Test results published in PubChem BioAssay AID2060886 (Molecular Pharmacology Branch, DTP, NCI, 2025).
Several values for one entry are separate records, joined by “and”; a condition that tells them apart may be missing. Equal values may be shown once. Blank lines part the entries; values can stand above or below the compound they belong to.

Tested on: 653999-131-R-J2-PDC complex spheroids, growth inhibition
Assay: Anticancer human tumor 653999-131-R-J2-PDC patient-derived lung adenocarcinoma cell line growth inhibition [RAS]
Conditions: for viability, T/C: stronger effect = lower value
Method in brief: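 Tumour cells grown as complex spheroids with HUVEC endothelial cells and mesenchymal stem cells, treated with RAS pathway inhibitor combinations. Each agent spans half-log steps from near clinical Cmax, or 10 microM where Cmax is unknown.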
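Also: spheroids exposed to the agents for seven days before the readout.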

IC50 (curve of first compound, second compound 0.0316 µM): 2.07 µM
IC50 (curve of first compound, second compound 0.1 µM): 1.81 µM
IC50 (curve of first compound, second compound 0.316 µM): 1.58 µM
IC50 (curve of first compound, second compound 1 µM): 1.29 µM
IC50 (curve of first compound, second compound 3.16 µM): 0.0316 µM
IC50 (curve of first compound, second compound 10 µM): < 0.0316 µM
Structure (SMILES): CCC(CC)c1cc(NC2CCC(N)C2)n2nccc2n1 (centres undefined) + C#Cc1c(F)ccc2cc(O)cc(-c3ncc4c(N5CC6CCC(C5)N6)nc(OCC56CCCN5CC(F)C6)nc4c3F)c12
viability, T/C (second compound 0.0316 µM, first compound 0.0316 µM): 91.1%
viability, T/C (second compound 0.0316 µM, first compound 0.1 µM): 110%
viability, T/C (second compound 0.0316 µM, first compound 0.316 µM): 84.8%
viability, T/C (second compound 0.0316 µM, first compound 1 µM): 105%
viability, T/C (second compound 0.0316 µM, first compound 3.16 µM): 15.3%
viability, T/C (second compound 0.0316 µM, first compound 10 µM): 28.7%
viability, T/C (second compound 0.1 µM, first compound 0.0316 µM): 85.2%
viability, T/C (second compound 0.1 µM, first compound 0.1 µM): 101%
viability, T/C (second compound 0.1 µM, first compound 0.316 µM): 93.1%
viability, T/C (second compound 0.1 µM, first compound 1 µM): 80.6%
viability, T/C (second compound 0.1 µM, first compound 3.16 µM): 14.2%
viability, T/C (second compound 0.1 µM, first compound 10 µM): 28.3%
viability, T/C (second compound 0.316 µM, first compound 0.0316 µM): 71.7%
viability, T/C (second compound 0.316 µM, first compound 0.1 µM): 75.5%
viability, T/C (second compound 0.316 µM, first compound 0.316 µM): 75.4%
viability, T/C (second compound 0.316 µM, first compound 1 µM): 72.3%
viability, T/C (second compound 0.316 µM, first compound 3.16 µM): 14.8%
viability, T/C (second compound 0.316 µM, first compound 10 µM): 17.3%
viability, T/C (second compound 1 µM, first compound 0.0316 µM): 56.2%
viability, T/C (second compound 1 µM, first compound 0.1 µM): 57%
viability, T/C (second compound 1 µM, first compound 0.316 µM): 68.7%
viability, T/C (second compound 1 µM, first compound 1 µM): 59.2%
viability, T/C (second compound 1 µM, first compound 3.16 µM): 10.7%
viability, T/C (second compound 1 µM, first compound 10 µM): 25.3%
viability, T/C (second compound 3.16 µM, first compound 0.0316 µM): 47.2%
viability, T/C (second compound 3.16 µM, first compound 0.1 µM): 45%
viability, T/C (second compound 3.16 µM, first compound 0.316 µM): 49.3%
viability, T/C (second compound 3.16 µM, first compound 1 µM): 39.4%
viability, T/C (second compound 3.16 µM, first compound 3.16 µM): 16%
viability, T/C (second compound 3.16 µM, first compound 10 µM): 27.7%
viability, T/C (second compound 10 µM, first compound 0.0316 µM): 36.2%
viability, T/C (second compound 10 µM, first compound 0.1 µM): 33.5%
viability, T/C (second compound 10 µM, first compound 0.316 µM): 20.9%
viability, T/C (second compound 10 µM, first compound 1 µM): 31.6%
viability, T/C (second compound 10 µM, first compound 3.16 µM): 9.65%
viability, T/C (second compound 10 µM, first compound 10 µM): 13.1%

IC50 (curve of compound): 0.0195 µM and 0.0194 µM and 0.0154 µM
Structure (SMILES): CC(C)n1nc(-c2ccc3oc(N)nc3c2)c2c(N)ncnc21
viability, T/C (compound 0.000316 µM): 87.2% and 81.4% and 79.2%
viability, T/C (compound 0.001 µM): 89.2% and 93.6% and 71.3%
viability, T/C (compound 0.00316 µM): 87.7% and 76.8% and 77.8%
viability, T/C (compound 0.01 µM): 61.8% and 63.5% and 57.9%
viability, T/C (compound 0.0316 µM): 43.1% and 40.6% and 35.8%
viability, T/C (compound 0.1 µM): 34.1% and 25.4% and 27.2%

Structure (SMILES): CC(=O)OC12COC1CC(O)C1(C)C(=O)C(O)C3=C(C)C(OC(=O)C(O)C(NC(=O)OC(C)(C)C)c4ccccc4)CC(O)(C(OC(=O)c4ccccc4)C21)C3(C)C (centres undefined)
viability, T/C (compound 0.0316 µM): 57.5% [middle of 4 runs]
viability, T/C (compound 0.1 µM): 58.8% [middle of 4 runs]
viability, T/C (compound 0.316 µM): 55.9% [middle of 4 runs]
viability, T/C (compound 1 µM): 61.6% [middle of 4 runs]
viability, T/C (compound 10 µM): 67.2% [middle of 4 runs]
